Measured values: the supplement of paper PMC10307832

Assays:
Test in all cases: relative viability (nuclei count vs DMSO), 5 days (fraction); higher = more cells survive
Ponatinib + Foretinib = compound: Cc1ccc(C(=O)Nc2ccc(CN3CCN(C)CC3)c(C(F)(F)F)c2)cc1C#Cc1cnc2cccnn12 [Ponatinib] + COc1cc2c(Oc3ccc(NC(=O)C4(C(=O)Nc5ccc(F)cc5)CC4)cc3F)ccnc2cc1OCCCN1CCOCC1 [Foretinib] (partner 0.25 µM)
Procedure, shortened: (§1)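 Lung cancer cell lines in 1536-well plates were dosed by pin tool the day after seeding, either with one drug alone or with a fixed anchor-drug dose plus five library-drug doses (not always all listed) in √10 steps. After 5 days, cells were fixed and their nuclei stained in one step (final 0.05% Triton X-100, 1% formaldehyde, 1 ug/ml Hoechst), then counted on 4× images. Relative viability is the nuclei count in treated wells divided by that in vehicle wells. Values are medians of duplicate plates.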

Ponatinib + Decitabine = compound: Cc1ccc(C(=O)Nc2ccc(CN3CCN(C)CC3)c(C(F)(F)F)c2)cc1C#Cc1cnc2cccnn12 [Ponatinib] + Nc1ncn([C@H]2C[C@H](O)[C@@H](CO)O2)c(=O)n1 [Decitabine] (partner 2 µM)
Procedure, shortened: as §1

Ponatinib + Vorinostat = compound: Cc1ccc(C(=O)Nc2ccc(CN3CCN(C)CC3)c(C(F)(F)F)c2)cc1C#Cc1cnc2cccnn12 [Ponatinib] + O=C(CCCCCCC(=O)Nc1ccccc1)NO [Vorinostat] (partner 1 µM)
Procedure, shortened: as §1

Pazopanib + Navitoclax = compound: Cc1ccc(Nc2nccc(N(C)c3ccc4c(C)n(C)nc4c3)n2)cc1S(N)(=O)=O [Pazopanib] + CC1(C)CCC(c2ccc(Cl)cc2)=C(CN2CCN(c3ccc(C(=O)NS(=O)(=O)c4ccc(N[C@H](CCN5CCOCC5)CSc5ccccc5)c(S(=O)(=O)C(F)(F)F)c4)cc3)CC2)C1 [Navitoclax] (partner 0.5 µM)
Procedure, shortened: as §1

Cell Line | relative viability (Ponatinib + Foretinib; first compound 0.002 µM) | relative viability (Ponatinib + Foretinib; first compound 0.006325 µM) | relative viability (Ponatinib + Foretinib; first compound 0.06325 µM) | relative viability (Ponatinib + Foretinib; first compound 0.2 µM) | relative viability (Ponatinib + Decitabine; first compound 0.002 µM) | relative viability (Ponatinib + Decitabine; first compound 0.006325 µM) | relative viability (Ponatinib + Decitabine; first compound 0.06325 µM) | relative viability (Ponatinib + Decitabine; first compound 0.2 µM) | relative viability (Ponatinib + Vorinostat; first compound 0.002 µM) | relative viability (Ponatinib + Vorinostat; first compound 0.006325 µM) | relative viability (Ponatinib + Vorinostat; first compound 0.06325 µM) | relative viability (Ponatinib + Vorinostat; first compound 0.2 µM) | relative viability (Pazopanib + Navitoclax; first compound 0.01 µM) | relative viability (Pazopanib + Navitoclax; first compound 0.03162 µM) | relative viability (Pazopanib + Navitoclax; first compound 0.1 µM) | relative viability (Pazopanib + Navitoclax; first compound 0.3162 µM) | relative viability (Pazopanib + Navitoclax; first compound 1 µM)
NCI-H441 | 1.14 | 0.836 | 1.01 | 0.986 | 0.228 | 0.246 | 0.271 | 0.267 | 0.647 | 0.675 | 0.822 | 0.757 | 0.516 | 0.493 | 1.12 | 0.553 | 0.765
NCI-H460 | 0.92 | 0.938 | 1 | 0.967 | 0.533 | 0.471 | 0.559 | 0.454 | 0.665 | 0.657 | 0.74 | 0.664 | 0.849 | 1.19 | 1.34 | 1.16 | 1.15
NCI-H520 | 0.628 | 0.786 | 0.496 | 0.596 | 0.426 | 0.483 | 0.45 | 0.411 | 0.686 | 0.59 | 0.663 | 0.499 | – | 1.18 | 0.955 | 1.05 | 0.98
NCI-H596 | 0.732 | 0.753 | 0.851 | 0.721 | 0.925 | 0.999 | 0.984 | 1 | 0.659 | 0.7 | 0.556 | 0.522 | 0.843 | 0.997 | 0.978 | 0.924 | 0.837
NCI-H647 | 1.12 | 1.01 | 1.24 | 1.08 | 0.319 | 0.369 | 0.429 | 0.407 | 0.381 | 0.588 | 0.686 | 0.513 | 1.14 | 1.08 | 1.21 | 1.17 | 1.16
NCI-H727 | 0.781 | 0.839 | 0.64 | 0.869 | 0.909 | 1.01 | 0.838 | 0.933 | 1.08 | 1.09 | 1.21 | 1.09 | 0.506 | 0.417 | 0.656 | 0.513 | 0.572
NCI-H838 | 1.02 | 1.03 | 1.05 | 0.955 | 0.417 | 0.475 | 0.458 | 0.487 | 0.755 | 0.764 | 0.773 | 0.664 | 1.1 | 1.22 | 1.21 | 1.24 | 1.26
NCI-H1355 | 0.988 | 0.943 | 1.1 | 0.971 | 0.335 | 0.355 | 0.399 | 0.346 | 0.564 | 0.604 | 0.677 | 0.615 | – | 0.899 | 1.09 | 1.07 | 0.979
NCI-H1395 | 0.903 | 0.996 | 0.945 | 0.904 | 0.816 | 0.714 | 0.682 | 0.615 | 0.483 | 0.578 | 0.678 | 0.416 | 1.15 | 1.25 | 1.24 | 1.33 | 1.28
NCI-H1437 | 1.22 | 1.22 | 1.31 | 1.28 | 0.498 | 0.548 | 0.606 | 0.593 | 0.859 | 0.858 | 0.938 | 0.901 | 1.11 | 1.06 | 1.07 | 0.985 | 1.08
NCI-H1650 | 1.36 | 1.07 | 1.55 | 1.31 | 0.328 | 0.653 | 0.449 | 0.324 | 0.642 | 0.539 | 0.654 | 0.65 | 1.28 | 1.26 | 1.44 | 1.18 | 1.04
NCI-H1651 | 0.765 | 0.777 | 0.888 | 0.814 | 0.613 | 0.704 | 0.615 | 0.665 | 0.507 | 0.579 | 0.602 | 0.601 | 1.1 | 1.16 | 1.17 | 1.12 | 1.16
NCI-H1666 | 0.967 | 0.988 | 1.06 | 0.886 | 0.752 | 0.745 | 0.812 | 0.766 | 0.998 | 1.01 | 1.08 | 0.89 | 1.06 | 0.975 | 0.926 | 1.22 | 1.01
NCI-H1734 | 0.73 | 0.895 | 0.821 | 0.809 | 0.477 | 0.459 | 0.524 | 0.429 | 0.763 | 0.777 | 0.914 | 0.773 | 0.796 | 0.795 | 0.854 | 0.875 | 0.901
NCI-H1755 | 0.818 | 0.913 | 0.92 | 0.804 | 0.701 | 0.73 | 0.719 | 0.639 | 0.685 | 0.777 | 0.72 | 0.82 | 0.852 | 0.937 | 1.01 | 1 | 0.991
NCI-H1793 | 0.749 | 0.696 | 0.707 | 0.539 | 0.451 | 0.526 | 0.561 | 0.499 | 0.678 | 0.701 | 0.846 | 0.686 | – | 0.421 | 0.387 | 0.463 | 0.542
NCI-H1915 | 1.03 | 1.12 | 0.996 | 1.01 | 0.244 | 0.274 | 0.246 | 0.257 | 0.457 | 0.49 | 0.469 | 0.491 | 0.821 | 0.782 | 0.78 | 0.768 | 0.729
NCI-H1944 | 0.876 | 0.856 | 1.05 | 0.859 | 0.422 | 0.433 | 0.482 | 0.43 | 0.519 | 0.637 | 0.693 | 0.679 | 0.942 | 0.997 | 1.09 | 1.05 | 1.08
